Data as given in publication PMC2788680 (Journal of medicinal chemistry, 2009).
“Also recorded” adds a separate entry of the source. Where two headings read alike, the source gives them in different places. Numbered stars: 1 amine (or outer) side, 2 acyl side, 3 side chain; on linkers, the order of the positions; unused ones are H or OH. Bridge positions count the residues as written; N and C are the ends. Square brackets hold non-standard residues; d marks the D form. Peptide text beside a SMILES is read from it. 2Nal = N[C@@H](Cc1ccc2ccccc2c1)C(=O)O; CH2 = C([*:1])[*:2]

How the values were obtained:
DOR [1] = molecular target: T1, DOR (Rattus norvegicus, UniProt P33533); format: cell-based
T1 sequence (P33533 whole entry): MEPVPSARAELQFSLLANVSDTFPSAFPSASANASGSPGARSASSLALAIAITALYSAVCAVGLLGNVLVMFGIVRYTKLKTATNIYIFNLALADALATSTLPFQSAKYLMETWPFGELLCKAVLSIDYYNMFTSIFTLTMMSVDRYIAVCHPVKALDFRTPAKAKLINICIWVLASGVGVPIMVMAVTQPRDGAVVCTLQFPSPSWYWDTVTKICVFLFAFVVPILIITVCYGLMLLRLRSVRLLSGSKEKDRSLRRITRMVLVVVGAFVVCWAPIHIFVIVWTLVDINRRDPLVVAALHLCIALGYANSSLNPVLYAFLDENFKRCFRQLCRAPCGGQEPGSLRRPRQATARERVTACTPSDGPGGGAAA

DOR [2] = molecular target: T1, DOR; test: Antagonism of SNC80-stimulated [35S]GTPγS binding in C6-DOR; format: biochemical
MOR = MOR (Rattus norvegicus, UniProt P33535); test: [35S]GTPγS binding assay, C6-MOR membranes; format: biochemical; conditions: [35S]GTPγS assay
Sequence of MOR (P33535 whole entry): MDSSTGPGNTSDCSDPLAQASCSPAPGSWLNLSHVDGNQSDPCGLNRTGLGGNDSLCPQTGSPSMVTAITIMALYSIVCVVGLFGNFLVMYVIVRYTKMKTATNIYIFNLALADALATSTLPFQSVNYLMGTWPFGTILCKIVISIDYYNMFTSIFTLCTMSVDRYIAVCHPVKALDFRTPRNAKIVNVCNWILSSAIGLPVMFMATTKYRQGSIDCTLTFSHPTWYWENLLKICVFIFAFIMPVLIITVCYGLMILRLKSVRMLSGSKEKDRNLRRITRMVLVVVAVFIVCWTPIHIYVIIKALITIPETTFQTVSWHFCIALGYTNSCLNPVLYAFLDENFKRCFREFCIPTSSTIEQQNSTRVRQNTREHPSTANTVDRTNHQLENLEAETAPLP

KOR = KOR (Homo sapiens, UniProt P41145); test: [35S]GTPγS binding assay, CHO-KOR membranes; format: biochemical; conditions: [35S]GTPγS assay
Sequence of KOR (P41145 whole entry): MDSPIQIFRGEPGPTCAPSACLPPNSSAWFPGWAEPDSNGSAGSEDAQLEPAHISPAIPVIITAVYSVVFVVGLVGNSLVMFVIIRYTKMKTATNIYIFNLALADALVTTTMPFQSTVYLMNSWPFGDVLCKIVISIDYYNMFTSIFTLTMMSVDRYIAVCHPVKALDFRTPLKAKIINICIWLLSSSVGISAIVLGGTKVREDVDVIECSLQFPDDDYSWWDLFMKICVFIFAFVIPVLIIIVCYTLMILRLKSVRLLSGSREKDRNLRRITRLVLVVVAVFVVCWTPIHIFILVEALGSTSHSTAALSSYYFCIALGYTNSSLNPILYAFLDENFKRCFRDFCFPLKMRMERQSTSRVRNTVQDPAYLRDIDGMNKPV

DOR [3] = molecular target: T1, DOR; test: [35S]GTPγS binding assay, C6-DOR membranes; format: biochemical; conditions: [35S]GTPγS assay

Compound: C=CCN1C[C@H](C)N([C@H](c2ccc(C(=O)N(CC)CC)cc2)c2cccc(OC)c2)C[C@H]1C [SNC80, 4-[(R)-[(2S,5R)-4-allyl-2,5-dimethylpiperazin-1-yl](3-methoxyphenyl)methyl]-N,N-diethylbenzamide]
- calculated maximal inhibition of adenylyl cyclase (DOR [1]): 76 ± 8.8%

Compound: Oc1ccc2c3c1O[C@H]1c4[nH]c5ccccc5c4C[C@@]4(O)[C@@H](C2)N(CC2CC2)CC[C@]314 [naltrindole]
- activity in adenylyl cyclase inhibition assay (DOR [1]): without effect; also recorded: did not inhibit cAMP accumulation

Compound: NC(=O)[C@@H]1CSCSC[C@@H](NC(=O)[C@@H](N)Cc2ccc(O)cc2)C(=O)N[C@@H](Cc2ccccc2)C(=O)N[C@@H](Cc2ccc3ccccc3c2)C(=O)N1 [compound 9, Tyr-c(S-CH2-S)[D-Cys-Phe-2-Nal-Cys]NH2] (H-Y[dC]F[2Nal]C-NH2; linker 2-5 via CH2; N-terminus assumed)
- Kb (DOR [2]): 0.048 ± 0.0095 µM
- activity in adenylyl cyclase inhibition assay (DOR [1]; C6-DOR cells): partial agonist
- calculated maximal inhibition of adenylyl cyclase (DOR [1]; calculated maximum, 5 µM forskolin-stimulated, C6-DOR cells): 43 ± 9.0%
- efficacy profile at MOR (MOR): full agonist
- efficacy profile at KOR (KOR): full agonist
- efficacy profile at DOR (DOR [3]): essentially as antagonists
